Test results as given in patent US4816438A, “Insulin-selective somatostatin analogs” (The Salk Institute for Biological Studies, priority 1987, dated 1989).
Where a SMILES comes first, the peptide text is derived from it. Bridges are numbered along the chain shown (N, C = ends).

What was measured:
[1] = synthetic SS-28; literature report; cited from earlier work
[2] = system: cells of rat pituitary glands; test: in vitro radioimmunoassays of growth hormone release from cultured rat pituitary cells, side-by-side with somatostatin-14; type: cell-based; details: comparative testing in rat pituitary cell cultures
Description: To determine the effectiveness of the peptides to inhibit the release of insulin, in vitro radioimmunoassays are carried out using aSS-28, [Lys^23 ]-aSS-28 and aSS(15-28) in side-by-side comparison with equimolar concentrations of somotostatin-14 having a known effectiveness to inhibit the release of growth hormone induced by the application of isobutyl methyl xanthine to pituitary cells. Cultures are used which include cells of rat pituitary glands removed some four to five days previously in a system that minimizes enzymatic degradation, generally following the procedure set forth in Vale et al., Methods in Enzymology, Hormones and Cyclic Nucleotides (1975) Vol. 37, p. 82. Both cultures of a defined standard medium and cultures which are considered optimal for the secretion of growth hormone, as a result of having additions of either 2% or 10% of serum from a foetal calf, are used for the comparative testing.

Row | Compound | potency when administered in vivo [1] | biological activity / potency relative to aSS-28 [2]
1 | somatostatin-28 [SS-28] | increased potency | –
2 | CC(C)C[C@H](NC(=O)[C@H](CC(N)=O)NC(=O)[C@H](CC(N)=O)NC(=O)[C@@H](NC(=O)[C@H](CO)NC(=O)[C@H](CC(=O)O)NC(=O)[C@@H](NC(=O)[C@@H](N)CO)C(C)C)[C@@H](C)O)C(=O)N1CCC[C@H]1C(=O)N1CCC[C@H]1C(=O)N[C@@H](CCCNC(=N)N)C(=O)N[C@@H](CCC(=O)O)C(=O)N[C@@H](CCCNC(=N)N)C(=O)N[C@@H](CCCCN)C(=O)N[C@@H](C)C(=O)NCC(=O)N[C@H]1CSSC[C@@H](C(=O)O)NC(=O)[C@H](CO)NC(=O)[C@H]([C@@H](C)O)NC(=O)[C@H](Cc2ccccc2)NC(=O)CNC(=O)[C@H](CCCCN)NC(=O)[C@H](Cc2c[nH]c3ccccc23)NC(=O)[C@H](Cc2ccc(O)cc2)NC(=O)[C@H](Cc2ccccc2)NC(=O)[C@H](CC(N)=O)NC(=O)[C@H](CCCCN)NC1=O [[Lys^23]-aSS-28] (H-SVDSTNNLPPRERKAGCKNFYWKGFTSC-OH; disulfide 17-28) | – | similarly biologically active although having somewhat lower potencies
